Data as given in publication PMC10994559 (PLOS Neglected Tropical Diseases, 2024).
“And” between values parts separate entries of the source, which are not always exact repeats. Equal values may be shown once. “Also recorded” adds a separate entry of the source.

Assays:
L. major = experiment: Cutaneous leishmaniasis mouse model: lymph node parasite burden (qPCR) and footpad swelling; type: in vivo, Balb/c mice; details: for Parasite load in popliteal lymph nodes (qPCR kDNA) vs DMSO control: PHT-39 13.75 mg/kg i.p. daily or s.c. every other day; for Parasite load in popliteal lymph nodes (qPCR kDNA) vs DMSO control / Footpad swelling vs DMSO control: AmB 8 mg/kg i.p.; for Footpad swelling vs DMSO control: day 21 post challenge
Protocol: Female Balb/c mice, aged 6–8 weeks, were purchased from the breeding stock in Czech Republic (Animalab, Czech Republic). Animals were kept under standard conditions according to European ethical guidelines for experimental animals.
L. major metacyclic promastigotes were prepared from a five day stationary phase culture through Ficoll gradient centrifugation according to previous studies with minor changes: Briefly, a 20% and 10% Ficoll gradient were prepared in PBS and M199 media, respectively and placed in a 14 ml falcon tube. Then, 1x10^9 L. major promastigotes were loaded on top of gradient and centrifuged. Metacyclic parasites were collected between two layers. Four groups of mice (n = 6) were challenged by subcutaneous injection of 2x10^6 stationary phase metacyclic promastigotes (50 μl in PBS) into the left hind footpad. Two weeks after infectious challenge, animals were treated by i.p or intralesional (s.c) PHT-39 injection (13.75 mg/kg body weight), daily or every other day, respectively, for ten days. AmB (8 mg/kg body weight) was applied as positive control drug (i.p injection for ten days) and 5% DMSO in distilled water was applied as negative control (s.c injection for ten days) (Table 1).
Every four days after the challenge, body weight was monitored and footpad swelling changes were measured (Footpad swelling = (height + width)/2) with a metric caliper (Kroeplin, IP65, D-series, external measuring gauge).
After the 10 days course of treatment all animals were sacrificed, and popliteal lymph nodes of each infected footpad were collected for parasite load determination. Genomic DNA was extracted from the lymph nodes (DNeasy Blood and Tissue kit, Qiagen). Equal concentration of samples (125 ng) was applied to quantify leishmania kDNA with primers RV1(forward: 5’-[…]-3’) and RV2 (reverse: 5’-CCACCTG […]-3’). qPCR data was normalized using the murine house-keeping gene GAPDH amplified with primers (forward:5’[…]3’; reverse: 5’[…]3’) in parallel using Maxima SYBR green qPCR master (Thermo). qPCR was performed using Biorad CFX96 device with 95°C/ 10 min (initial denaturation), then 95°C/15s (denaturation), 60°C /30s (annealing) and 72°C/ 40s (extension) over 40 cycles. For ΔCT calculation of samples, every CT were subtracted from the same on GAPDH. Then, ΔΔCT of each group was normalized according to negative control group (DMSO).
The most significant requirement of an anti-leishmanial drug is its ability to reduce the parasite burden in the infected host. […] Briefly, four groups of 6–8 weeks Balb/c mice were challenged with 2 x 10^6 L. major promastigotes subcutaneously injected into the hind footpad. Treatment started after two weeks when a wound started to form. Two groups were treated with PHT-39 compound at doses of 13.75 mg/kg either via i.p route, daily, or s.c route, every other day for 10 days. One group received a daily dosage of AmB as a control, and another infected non-treated group was included in the study. After 10 days, popliteal lymph nodes were collected to assess parasite burden and immune response stimulation was studied in spleen cell culture supernatants.

T. brucei BSF = experiment: Cell cycle (nuclei/kinetoplast count, DAPI) after PHT-39 treatment; type: cell-based, Trypanosoma brucei; details: 1 x EC50, 24 h
Protocol: 10^6 cells were harvested by centrifugation (1000*g) after 24 h from cultures in logarithmic growth phase and washed once with serum-free HMI-9. After fixation in 2% formaldehyde cell were applied to a glass slide and mounted with Vectashield Antifade mounting medium with 4′,6-diamidino2-phenylindole (DAPI) for fluorescence microscopy imaging on a Leica TCS SP8 WLL SMD-FLIM inverted confocal microscope. The number of nuclei (N) and kinetoplasts (K) per cell were then counted for 100 cells in each respective replicate (n = 3), allowing determination of cell cycle stage.

Plasmodium falciparum = system: Plasmodium falciparum; parameters: method as in PMID 35749989; details: cited from earlier work
T. brucei BSF proteome = experiment: Label-free LC-MS/MS proteomics after PHT-39 exposure; type: cell-based, Trypanosoma brucei
Protocol: 4 x 10^7 cells were harvested by centrifugation (1000*g) after 48 h from cultures in logarithmic growth phase and washed thrice with PBS. Samples were subjected to lysis, tryptic digest and reductive alkylation using standard procedures. LC-MS/MS was performed by the OMICS Proteomics Facility at Charles University Biocev on an UltiMate 3000 RSLCnano System (Thermo Fisher Scientific) coupled to a Orbitrap Fusion mass spectrometer (Thermo Fisher Scientific). Mass spectra were analyzed by label-free quantification using MaxQuant version 2.1.0.0 [30] searching the T. brucei brucei 927 annotated protein database (release 57) from TriTrypDB [31]. Minimum peptide length was set at seven amino acids and false discovery rates of 0.01 were calculated at the levels of peptides, proteins, and modification sites based on the number of hits against the reversed sequence database. When the identified peptide sequence set of one protein contained the peptide set of another protein, these two proteins were assigned to the same protein group. P-values were calculated, applying t-test–based statistics using Perseus. Proteomics data have been deposited to the ProteomeXchange Consortium via the PRIDE partner repository with the data set identifier PXD043204.

Plasmodium berghei ANKA = system: Plasmodium berghei ANKA; parameters: method as in PMID 35749989; details: cited from earlier work
[1] = PHT-39 13.75 mg/kg i.p. or s.c.

## C[C@@H]1[C@H](O)[C@@H](C)/C=C/C=C/C=C/C=C/C=C/C=C/C=C/[C@H](O[C@@H]2O[C@H](C)[C@@H](O)[C@H](N)[C@@H]2O)C[C@@H]2O[C@](O)(C[C@@H](O)C[C@@H](O)[C@H](O)CC[C@@H](O)C[C@@H](O)CC(=O)O[C@H]1C)C[C@H](O)[C@H]2C(=O)O [AmB, amphotericin B, reference compound]
L. major; 10 days
  Parasite load in popliteal lymph nodes (qPCR kDNA) vs DMSO control: reduce the parasite load significantly; also recorded: reduction of parasite load in the AmB group was significant
L. major; [1]
  Footpad swelling vs DMSO control: reduced significantly; also recorded: effectively reduced the swelling

## CC[C@@H](C)[C@H](c1nc2ccccc2n1Cc1cn(-c2ccc(C(F)(F)F)cc2)nn1)N1C(=O)c2ccccc2C1=O [PHT-39]
T. brucei BSF
  Proportion of 2K1N cells, decreased to: approximately 57%
  Proportion of 2K2N cells, decreased to: approximately 28%
Plasmodium falciparum; 3 h exposure at EC50 0.64 μM
  Mitochondrial membrane potential, P. falciparum trophozoites: collapse of the mitochondrial membrane potential
Plasmodium falciparum; read-out: EC50 Plasmodium falciparum intraerythrocyte stages
  EC50: 640 nM and 600 nM
T. brucei BSF proteome; 3.9 μM (1× EC50), 48 h
  Abundance change FAZ localized protein Tb927.1.4280: 0.62 fold
  Abundance change Hsp104 homolog Tb927.2.5980: 1.4 fold
  Abundance change PIP39 (Tb927.9.6090): 1.6 fold
  Abundance change axonemal protein SAXO (Tb927.8.6240): 0.65 fold
T. brucei BSF proteome; protein 2-oxoglutarate dehydrogenase E1 component, Tb927.11.1450
  PHT-39 ratio (protein abundance): 1.73
T. brucei BSF proteome; protein 2-oxoglutarate dehydrogenase E1 component, Tb927.11.9980
  PHT-39 ratio (protein abundance): 1.93
T. brucei BSF proteome; protein ACS1, Tb927.7.6180
  PHT-39 ratio (protein abundance): - ∞
T. brucei BSF proteome; protein Aconitase, Tb927.10.14000
  PHT-39 ratio (protein abundance): 1.39
T. brucei BSF proteome; protein CIF1 (TOEFAZ1), Tb927.11.15800
  PHT-39 ratio (protein abundance): 0.46
T. brucei BSF proteome; protein CIF3, Tb927.10.13100
  PHT-39 ratio (protein abundance): - ∞
T. brucei BSF proteome; protein CIF4, Tb927.10.8240
  PHT-39 ratio (protein abundance): 0.88
T. brucei BSF proteome; protein F1 alpha, Tb927.7.7430, Tb927.7.7420
  PHT-39 ratio (protein abundance): 1.31
T. brucei BSF proteome; protein F1 beta, Tb927.3.1380
  PHT-39 ratio (protein abundance): 1.33
T. brucei BSF proteome; protein F1 gamma, Tb927.10.180
  PHT-39 ratio (protein abundance): 1.23
T. brucei BSF proteome; protein F1 p18, Tb927.5.1710
  PHT-39 ratio (protein abundance): 1.90
T. brucei BSF proteome; protein FPRC, Tb927.10.6360
  PHT-39 ratio (protein abundance): 0.72
T. brucei BSF proteome; protein Fo 8, Tb927.4.3450
  PHT-39 ratio (protein abundance): ∞
T. brucei BSF proteome; protein Fo ATBTB1, Tb927.10.520
  PHT-39 ratio (protein abundance): 1.48
T. brucei BSF proteome; protein Fo ATBTB3, Tb927.11.6250
  PHT-39 ratio (protein abundance): 1.53
T. brucei BSF proteome; protein Fo ATBTB4, Tb927.10.9830
  PHT-39 ratio (protein abundance): 1.36
T. brucei BSF proteome; protein Fo ATBTB6, Tb927.11.1270
  PHT-39 ratio (protein abundance): 1.40
T. brucei BSF proteome; protein Fo ATBTB12, Tb927.5.3090
  PHT-39 ratio (protein abundance): 3.78
T. brucei BSF proteome; protein Fo OSCP, Tb927.10.8030
  PHT-39 ratio (protein abundance): 2.93
T. brucei BSF proteome; protein Fo d, Tb927.5.2930
  PHT-39 ratio (protein abundance): 1.35
T. brucei BSF proteome; protein Fo e, Tb927.11.600
  PHT-39 ratio (protein abundance): 1.09
T. brucei BSF proteome; protein Fo f, Tb927.3.1690
  PHT-39 ratio (protein abundance): 1.36
T. brucei BSF proteome; protein Fo i/j, Tb927.3.2880
  PHT-39 ratio (protein abundance): 1.66
T. brucei BSF proteome; protein Fo k, Tb927.7.840
  PHT-39 ratio (protein abundance): 3.17
T. brucei BSF proteome; protein Glutamate dehydrogenase, Tb927.9.5900
  PHT-39 ratio (protein abundance): 1.53
T. brucei BSF proteome; protein PIP39, Tb927.9.6090
  PHT-39 ratio (protein abundance): 1.62
T. brucei BSF proteome; protein PPDK, Tb927.11.6280
  PHT-39 ratio (protein abundance): ∞
T. brucei BSF proteome; protein Proline dehydrogenase, Tb927.7.210
  PHT-39 ratio (protein abundance): 1.66
T. brucei BSF proteome; protein SAXO, Tb927.8.6240
  PHT-39 ratio (protein abundance): 0.65
T. brucei BSF proteome; protein Tb927.1.4280
  PHT-39 ratio (protein abundance): 0.63
T. brucei BSF proteome; protein Tb927.10.4770, phosphatidylinositol-4-phosphate 5-kinase, putative
  Difference (LFQ intensity treated vs untreated): 2.042
T. brucei BSF proteome; protein Tb927.4.3450, Mitochondrial ATP synthase subunit, putative
  Difference (LFQ intensity treated vs untreated): 5.909
T. brucei BSF proteome; protein Tb927.6.980;Tb927.6.970;Tb927.6.960;Tb927.6.1020;Tb927.6.1010, cysteine peptidase, Cathepsin L-like
  Difference (LFQ intensity treated vs untreated): 5.36
T. brucei BSF proteome; protein Tb927.7.2660, zinc finger protein family member, putative
  Difference (LFQ intensity treated vs untreated): 3.448
T. brucei BSF proteome; protein Tb927.9.12700, phospholipase A1, putative
  Difference (LFQ intensity treated vs untreated): 3.03
T. brucei BSF proteome; protein citrate synthase, Tb927.10.13430
  PHT-39 ratio (protein abundance): 1.66
T. brucei BSF proteome; protein isocitrate dehydrogenase, Tb927.8.3690
  PHT-39 ratio (protein abundance): 1.46
T. brucei BSF proteome; protein mitochondrial malate dehydrogenase, Tb927.10.2560
  PHT-39 ratio (protein abundance): 1.32
T. brucei BSF proteome; protein succinyl-CoA ligase beta-chain, Tb927.10.7410
  PHT-39 ratio (protein abundance): 1.79
T. brucei BSF proteome; protein succinyl-CoA synthetase alpha subunit, Tb927.3.2230
  PHT-39 ratio (protein abundance): 1.72
L. major; 10 days
  Parasite load in popliteal lymph nodes (qPCR kDNA) vs DMSO control: did not show a significant difference; also recorded: not significantly changed
L. major; PHT-39 13.75 mg/kg i.p. or s.c., 10 days, 13.75 mg/kg
  Elimination of L. major infection in cutaneous leishmaniasis model: unable to eradicate L. major infection; also recorded: failed to eliminate the Leishmania infection
L. major; PHT-39 13.75 mg/kg s.c. every other day
  Parasite burden in lymph nodes: lower but insignificant parasite burden
L. major; [1]
  Footpad swelling vs DMSO control: Neither of the test groups showed significant difference with the DMSO control; also recorded: did not show any significant changes
Plasmodium berghei ANKA
  Parasitemia and host survival, P. berghei ANKA infection model: considerable decrease in parasitemia and significantly extended host survival
